≈ marks a conversion by molar mass, not a printed value.
Key:
[1] = test system: carbapenem sensitive Pseudomonas aeruginosa; assay: MIC by broth micro-dilution (CLSI), carbapenem sensitive P. aeruginosa; format: cell-based; settings: Pseudomonas aeruginosa, ATCC27853, Meropenem susceptible P. aeruginosa ATCC27853; read-out: MIC
[2] = test system: extended spectrum β lactamase (ESBL) SHV18 producing Klebsiella pneumoniae; assay: MIC by broth micro-dilution (CLSI), ESBL SHV18 producing K. pneumoniae; format: cell-based; settings: Klebsiella pneumoniae, ATCC700603, 22 h, ESBL +ve (SHV-18) K. pneumoniae ATCC700603; read-out: MIC
[3] = test system: carbapenem sensitive Escherichia coli; assay: MIC by broth micro-dilution (CLSI), carbapenem sensitive E. coli; format: cell-based; settings: Escherichia coli, ATCC25922, ESBL −ve E. coli ATCC25922; read-out: MIC
[4] = test system: carbapenemase producing K. pneumoniae; assay: MIC by broth micro-dilution (CLSI), carbapenemase producing K. pneumoniae; format: cell-based, Klebsiella pneumoniae; settings: Klebsiella pneumoniae, ATCCBAA1705, KPC-2 K. pneumoniae ATCC BAA-1705; read-out: MIC
[5] = test system: methicillin-sensitive Staphylococcus aureus; assay: MIC by broth micro-dilution (CLSI), methicillin-sensitive S. aureus; format: cell-based; settings: Staphylococcus aureus, ATCC 29213 / MSSA, MSSA S. aureus ATCC29213; read-out: MIC

Compound	MIC [1] [µg/mL]	MIC [2] [µg/mL]	MIC [3] [µg/mL]	MIC [4] [µg/mL]	MIC [5] [µg/mL]
CCS(=O)(=O)CC(=O)N[C@H](C)[C@H]1C(=O)N2C(C(=O)O)=C(S[C@@H]3CN[C@H](C(=O)N(C)C)C3)[C@H](C)[C@H]12 [Example 63]	> 128	16 to 32 (≈ 31 to 61.9 µM)	1 to 2 (≈ 1.94 to 3.87 µM)	8 to 16 (≈ 15.5 to 31 µM)	8 to 16 (≈ 15.5 to 31 µM)
C[C@@H](NC(=O)C(F)(F)F)[C@H]1C(=O)N2C(C(=O)O)=C(S[C@@H]3CN[C@H](C(=O)N(C)C)C3)[C@H](C)[C@H]12 [Example 64]	64 (≈ 134 µM)	8 (≈ 16.7 µM)	1 to 2 (≈ 2.09 to 4.18 µM)	8 (≈ 16.7 µM)	2 (≈ 4.18 µM)
C[C@@H](NC(=O)C(=O)N(C)C)[C@H]1C(=O)N2C(C(=O)O)=C(S[C@@H]3CN[C@H](C(=O)N(C)C)C3)[C@H](C)[C@H]12 [Example 66]	> 128	8 (≈ 16.6 µM)	2 (≈ 4.15 µM)	4 to 8 (≈ 8.31 to 16.6 µM)	8 (≈ 16.6 µM)
CC(C)C[C@H](O)C(=O)N[C@H](C)[C@H]1C(=O)N2C(C(=O)O)=C(S[C@@H]3CN[C@H](C(=O)N(C)C)C3)[C@H](C)[C@H]12 [Example 67]	> 128	> 128	8 (≈ 16.1 µM)	> 128	4 (≈ 8.05 µM)
C[C@H](N)C(=O)N[C@H](C)[C@H]1C(=O)N2C(C(=O)O)=C(S[C@@H]3CN[C@H](C(=O)N(C)C)C3)[C@H](C)[C@H]12 [Example 68]	32 to 64 (≈ 70.6 to 141 µM)	8 (≈ 17.6 µM)	4 (≈ 8.82 µM)	> 128	32 (≈ 70.6 µM)
C[C@@H](NC(=O)CNS(C)(=O)=O)[C@H]1C(=O)N2C(C(=O)O)=C(S[C@@H]3CN[C@H](C(=O)N(C)C)C3)[C@H](C)[C@H]12 [Example 70]	> 128	8 (≈ 15.5 µM)	4 (≈ 7.73 µM)	16 (≈ 30.9 µM)	16 (≈ 30.9 µM)
C[C@@H](NC(=O)[C@@H](N)Cc1ccccc1)[C@H]1C(=O)N2C(C(=O)O)=C(S[C@@H]3CN[C@H](C(=O)N(C)C)C3)[C@H](C)[C@H]12 [Example 71]	> 128	128 (≈ 242 µM)	16 (≈ 30.2 µM)	64 (≈ 121 µM)	8 (≈ 15.1 µM)
C[C@@H](NC(=O)[C@H](N)Cc1ccccc1)[C@H]1C(=O)N2C(C(=O)O)=C(S[C@@H]3CN[C@H](C(=O)N(C)C)C3)[C@H](C)[C@H]12 [Example 72]	> 128	> 128	32 (≈ 60.4 µM)	> 128	32 (≈ 60.4 µM)
CC(C)OC(=O)C(=O)N[C@H](C)[C@H]1C(=O)N2C(C(=O)O)=C(S[C@@H]3CN[C@H](C(=O)N(C)C)C3)[C@H](C)[C@H]12 [Example 73]	4 to 16 (≈ 8.05 to 32.2 µM)	4 (≈ 8.05 µM)	1 to 2 (≈ 2.01 to 4.03 µM)	8 (≈ 16.1 µM)	4 (≈ 8.05 µM)
COC(=O)C(=O)N[C@H](C)[C@H]1C(=O)N2C(C(=O)O)=C(S[C@@H]3CN[C@H](C(=O)N(C)C)C3)[C@H](C)[C@H]12 [Example 74]	8 (≈ 17.1 µM)	1 to 2 (≈ 2.13 to 4.27 µM)	1 to 2 (≈ 2.13 to 4.27 µM)	4 (≈ 8.54 µM)	8 to 16 (≈ 17.1 to 34.1 µM)
CNC(=O)C(=O)N[C@H](C)[C@H]1C(=O)N2C(C(=O)O)=C(S[C@@H]3CN[C@H](C(=O)N(C)C)C3)[C@H](C)[C@H]12 [Example 75]	> 128	8 (≈ 17.1 µM)	1 (≈ 2.14 µM)	16 (≈ 34.2 µM)	4 (≈ 8.56 µM)
C[C@@H](NC(=O)C(F)F)[C@H]1C(=O)N2C(C(=O)O)=C(S[C@@H]3CN[C@H](C(=O)N4CCC(F)(F)CC4)C3)[C@H](C)[C@H]12 [Example 76]	> 128	8 (≈ 14.9 µM)	1 (≈ 1.86 µM)	8 (≈ 14.9 µM)	2 (≈ 3.73 µM)
C[C@@H](NC(=O)C(F)F)[C@H]1C(=O)N2C(C(=O)O)=C(S[C@@H]3CN[C@H](C(=O)N4CC[C@H](O)C4)C3)[C@H](C)[C@H]12 [Example 77]	32 to 64 (≈ 63.7 to 127 µM)	1 (≈ 1.99 µM)	0.5 to 1 (≈ 0.995 to 1.99 µM)	4 (≈ 7.96 µM)	4 to 8 (≈ 7.96 to 15.9 µM)
C[C@@H](NC(=O)CS(C)(=O)=O)[C@H]1C(=O)N2C(C(=O)O)=C(S[C@@H]3CN[C@H](C(=O)N(C)C)C3)[C@H](C)[C@H]12 [Example 78]	128 (≈ 255 µM)	2 (≈ 3.98 µM)	1 (≈ 1.99 µM)	> 128	8 (≈ 15.9 µM)
CC(C)C[C@@H](F)C(=O)N[C@H](C)[C@H]1C(=O)N2C(C(=O)O)=C(S[C@@H]3CN[C@H](C(=O)N(C)C)C3)[C@H](C)[C@H]12 [Example 79]	> 128	> 128	32 (≈ 64.2 µM)	> 128	4 (≈ 8.02 µM)

— patent publication US11180504B2 (ORCHID PHARMA LTD., priority 2016, dated 2021)
